Common to all, as to format: physicochemical
A short description of data set [1]: Dynamic vapour sorption (DVS). Here is the method: Dynamic vapour sorption (DVS) was measured using a SMS DVS Intrinsic moisture sorption analyser changing the relative humidity from 0% RH to 90% RH. The sample temperature was maintained at 25° C. The humidity was controlled by mixing streams of dry and wet nitrogen, with a total flow rate of 200 ml/min. The relative humidity was measured by a calibrated Rotronic probe (dynamic range of 1.0-100% RH), located near the sample. The weight change of the sample as a function of % RH was constantly monitored by a balance.
Typically, 5-30 mg of sample was placed in a tared mesh stainless steel basket under ambient conditions. The sample was loaded and unloaded at 40% RH and 25° C. (typical room conditions).

A short description of data set [2]: Competitive slurry experiments between Compound (I) form 1 and form 7. The following applies: methanol or ethanol, 5° C., room temperature, 50° C., one week. Here is the method: The relative thermodynamic stability of Compound (I) form 1 and Compound (I) form 7 was elucidated using competitive slurry experiments as detailed in the following.
Step 1: Compound (I) form 1 (150 mg) and Compound (I) form 7 (150 mg) were mixed in a 20 mL vial. 40 mg (each) of this physical mixture was placed into six 2 mL vials.
Step 2: Using the remaining 60 mg of the physical mixture, saturated solutions with methanol and ethanol, respectively, were produced. The saturated solutions were filtered off.
Step 3: 10 volumes ([…]) of each saturated solution were added to each of the six 2 mL vials mentioned in step 1.
Step 4: One vial for each solvent was kept at 5° C., room temperature and 50° C. for one week.
XRPD analysis carried out on the solids yielded a pattern substantially similar to FIG. 1 for all six vials.

The nature of data set [3]: Variable temperature XRPD of Compound (I) form 7. The following applies: VT-XRPD, heating 10° C./min. Here is the method: Procedure 4 carried out under non-ambient conditions: For variable temperature (VT-XRPD) experiments the samples were prepared and analysed in an Anton Paar chromed sample holder. A heating/cooling rate of 10° C./min was used. The measurement parameters are as per the standard screening data collection method (detailed in Procedure 3 above). Measurements were taken at the following temperatures: 25, 100, 145, 150, 155, 160, 165, 170, 175, and 25° C.
Compound (I) form 7 obtained using the procedure detailed in Example 2 was subjected to variable temperature X-ray powder diffraction (VT-XRPD), as described in Example 10 (“[…]”).

The text below walks through data of patent US12152029B2, “Crystalline forms of a MAGL inhibitor” (H. Lundbeck A/S, priority 2021, dated 2024).

For `O=C(O)c1ccn(C(=O)N2CCC3(CCCN3Cc3ccc(C(F)(F)F)cc3N3CCCC3)CC2)n1` [Compound (I) form 7, 1-(1-(2-(pyrrolidin-1-yl)-4-(trifluoromethyl)benzyl)-1,8-diazaspiro[4.5]decane-8-carbonyl)-1H-pyrazole-3-carboxylic acid], in data set [1] (DVS, 25° C., 0% RH to 90% RH), the “water uptake up to 90% RH” value was about 6%. The “hygroscopicity by DVS analysis” value in data set [1] (DVS, 25° C., up to 90% RH) was “moderately hygroscopic”. Besides, the “solid form by XRPD analysis after DVS analysis” value in data set [1] (after DVS cycle) is listed as “still Compound (I) form 7”. The “form conversion in competitive slurry” value in data set [2] is listed as “transforms into Compound (I) form 1 at all temperatures tested”. In data set [3], the “temperature at which conversion to Compound (I) form 1 begins” value was found to be 160 °C and the “temperature at which exclusively Compound (I) form 1 was obtained” value worked out at 170 °C.
